Assay type in all cases: in vivo
Assay [1] concerns onion. Nature of the assay: Growth, yield and yield attributes of onion (Test-3). Here is the method: The method of testing effect of additive 10 on different properties of soil was similar to the method as disclosed in Test-1 of Experiment-2, except time period which is 2 months instead of 9 months. The effect of additive was tested on soil using additive 10.
The effect of the additive 10, agricultural composition and agricultural composition along with fertilizer prepared in accordance with the present disclosure on the growth of onion was studied. Additive 10 prepared in Experiment 1 was used for the study. The study was conducted in the presence and in absence of the additive of the present disclosure to determine the effect of the additive on onion. Further, the effect of agricultural composition and agricultural composition along with fertilizer was studied. The study was carried out at a village in Bhavnagar District (Gujarat). The study was carried out in Two Plots: one plot, the additive of the present disclosure application and the other plot, urea application under Spacing of two rows and plants (15 cm×10 cm).
The effect of additive 10, agricultural composition and agricultural composition along with fertilizer on growth, yield and yield attributes of onion was carried and the comparative results obtained are summarized in Table-5a.

For assay [2], the system named is pigeon pea (Toor). Nature of the assay: Comparative report of parameters for pigeon pea (Toor), Table 7 (protein, energy, ash, minerals). The settings on record: pigeon pea (Toor) trial.
For assay [3], the system named is Pigeon pea crop. Briefly: Yield and yield attributes of pigeon pea (Test-5). As to the method:
The study was carried out with and without the additive of the present disclosure in different plots at a village in […] District (Gujarat). The Pigeon pea crop was planted in 90 cm between two rows and 20 cm of two plants under fields. The result pertaining to plant height, number of branches per plant, number of pods per plant, grain and haulm yield of pigeon pea crop recorded at harvest as influenced by additive of the present disclosure is summarized in Table-7a. Further, the effect of the plant growth regulator and agricultural composition and the comparative results obtained are summarized in Table-7b.

Consider one compound from patent US10975303B2, “Additive for soil conditioning and an agricultural composition containing said additive for plant growth” (priority 2019, dated 2021).

Each structure is given as a SMILES string.

For `NC(N)=O` [urea], in assay [1], the Ave. bulb weight was found to be 51.50 g, the Bulb yield was 34.30 t/ha, the Leaf area came out at 930 cm² and the Plant height stood at 56.00 cm. Further, the Energy in assay [2] amounted to 355.01 Kcal/100 gm. The “Total Ash” value in assay [2] (LOQ 0.1) came out at 3.94 gm/100 gm. Moreover, the “Total Protein” value in assay [2] (LOQ 0.5) was found to be 16.47 gm/100 gm. For the same compound, in assay [2] (LOQ 2.5), the “Calcium (as Ca)” value stood at 508.85 mg/kg, the “Iron (as Fe)” value turned out to be 11.48 mg/kg, the “Manganese (as Mn)” value is 4.71 mg/kg and the “Zinc (as Zn)” value worked out at 10.99 mg/kg. In assay [3], this compound registered a Grain yield of 1060 kg/ha and a Haulm yield of 1285 kg/ha. Moreover, in assay [3] (at harvest), the “Number of branches per plant” value is given as 10.0, the “Number of pods per plant” value is recorded as 172.0 and the Plant height stood at 133.0 cm.
